Test results published in patent US9062041B2 (Bayer Intellectual Property GmbH, priority 2011, dated 2015).

Experiments:
Assay type in all cases: cell-based
[1] = molecular target: EP2 subtype of the human PGE2 receptor (Homo sapiens, UniProt P43116); assay: cAMP antagonism test on the human EP2 receptor (HTRF cAMP detection); details: hEP2 receptor, read-out: Antagonism hEP2 IC50
Summary of the method: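 Read-out is a competitive HTRF for cAMP: lysate cAMP displaces cAMP-d2 from Eu cryptate-labelled antibody, and antagonism raises the 665/620 nm ratio. Compound (0.8 nM–16.5 μM) added to EP2 cells 20 min at RT before 60 min PGE2 challenge (3× stock 1.5 nM) with IBMX, followed by 20 min lysis.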

[2] = molecular target: EP4 subtype of the human PGE2 receptor (Homo sapiens, UniProt P35408); assay: cAMP antagonism test on the human EP4 receptor (HTRF cAMP detection); details: selectivity towards hEP4, IC50 measured by cAMP antagonism test
Sequence of EP4 subtype of the human PGE2 receptor (P35408 whole entry): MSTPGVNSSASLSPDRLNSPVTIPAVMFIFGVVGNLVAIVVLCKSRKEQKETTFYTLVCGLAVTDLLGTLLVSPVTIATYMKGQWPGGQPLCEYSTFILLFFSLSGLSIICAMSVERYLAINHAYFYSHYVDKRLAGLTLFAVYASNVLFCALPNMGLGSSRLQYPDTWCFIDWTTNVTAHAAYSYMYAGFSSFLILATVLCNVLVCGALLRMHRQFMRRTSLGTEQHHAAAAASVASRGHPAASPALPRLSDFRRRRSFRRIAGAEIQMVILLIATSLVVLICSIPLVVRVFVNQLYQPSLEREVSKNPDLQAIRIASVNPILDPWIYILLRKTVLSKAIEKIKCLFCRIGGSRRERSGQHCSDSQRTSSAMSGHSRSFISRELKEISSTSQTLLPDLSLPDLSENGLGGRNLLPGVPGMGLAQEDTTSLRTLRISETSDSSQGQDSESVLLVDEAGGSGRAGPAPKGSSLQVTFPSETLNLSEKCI
Summary of the method: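 Competitive HTRF cAMP read-out (cAMP-d2 vs Eu-cryptate anti-cAMP antibody, 665/620 nm ratio) on lysed human EP4 cells. Compound (0.8 nM–16.5 μM) applied 20 min at RT before 60 min PGE2 challenge (3× solution 0.3 nM, IBMX present); 20 min lysis precedes reading.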

human PGD receptor = molecular target: T1, human PGD receptor (Homo sapiens, UniProt Q13258); assay: cAMP antagonism test on the human prostaglandin D receptor (HTRF cAMP detection); details: selectivity towards hDP, IC50 measured by cAMP antagonism test
T1 sequence (Q13258 1-359): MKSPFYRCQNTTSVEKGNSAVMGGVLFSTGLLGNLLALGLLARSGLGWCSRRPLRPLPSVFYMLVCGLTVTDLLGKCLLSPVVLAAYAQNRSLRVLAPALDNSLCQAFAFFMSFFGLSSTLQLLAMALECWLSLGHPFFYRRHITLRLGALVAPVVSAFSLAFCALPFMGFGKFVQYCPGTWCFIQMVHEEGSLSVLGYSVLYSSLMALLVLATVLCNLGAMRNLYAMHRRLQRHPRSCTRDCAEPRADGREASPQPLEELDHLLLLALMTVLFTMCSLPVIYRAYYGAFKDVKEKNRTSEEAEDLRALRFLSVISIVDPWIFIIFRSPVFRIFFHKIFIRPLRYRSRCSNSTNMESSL
Summary of the method: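 HTRF competition read-out (665/620 nm ratio ×10000), where higher FRET means less cAMP, i.e. antagonism. Compounds (0.8 nM–16.5 μM) were preincubated 20 min at RT with cells and cAMP-d2, PGD2 (3× solution, 6 nM) in IBMX-containing PBS added for 30 min at RT, then cells lysed 20 min.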

Sequence of EP2 subtype of the human PGE2 receptor (P43116 whole entry): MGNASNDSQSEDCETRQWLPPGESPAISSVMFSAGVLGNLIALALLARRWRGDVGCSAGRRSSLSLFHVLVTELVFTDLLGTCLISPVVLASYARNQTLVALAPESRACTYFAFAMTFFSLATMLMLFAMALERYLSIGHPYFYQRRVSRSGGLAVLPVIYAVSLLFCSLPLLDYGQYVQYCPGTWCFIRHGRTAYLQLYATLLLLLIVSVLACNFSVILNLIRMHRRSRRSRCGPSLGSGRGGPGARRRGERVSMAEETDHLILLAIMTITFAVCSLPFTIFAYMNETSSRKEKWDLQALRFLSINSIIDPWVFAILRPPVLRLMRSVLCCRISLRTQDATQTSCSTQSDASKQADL

Structure (SMILES)	IC50 [1]	Selectivity hEP2/hEP4 [2]	Selectivity hEP2/hDP (human PGD receptor)
COc1ccc2c(c1)cc(C(=O)N1CCC(Cn3cc4c(C)c(C(=O)NCC(F)(F)F)ccc4n3)CC1)n2C [Example 293, 2-({1-[(5-methoxy-1-methyl-1H-indol-2-yl)carbonyl]piperidin-4-yl}methyl)-4-methyl-N-(2,2,2-trifluoroethyl)-2H-indazol-5-carboxamide]	28.3 nM	xxx (xxx > 100)	xxx (xxx > 100)
Cc1c(C(=O)NCC(F)(F)F)ccc2nn(CC3CCN(C(=O)c4cc5cc(Cl)ccc5n4C)CC3)cc12 [Example 294, 2-({1-[(5-chloro-1-methyl-1H-indol-2-yl)carbonyl]piperidin-4-yl}methyl)-4-methyl-N-(2,2,2-trifluoroethyl)-2H-indazol-5-carboxamide]	13.2 nM	xxx (xxx > 100)	xxx (xxx > 100)
COc1ccc2cc(C(=O)N3CCC(Cn4cc5c(C)c(C(=O)NCC(F)(F)F)ccc5n4)CC3)n(C)c2c1 [Example 295, 2-({1-[(6-methoxy-1-methyl-1H-indol-2-yl)carbonyl]piperidin-4-yl}methyl)-4-methyl-N-(2,2,2-trifluoroethyl)-2H-indazol-5-carboxamide]	70.8 nM	xxx (xxx > 100)	xxx (xxx > 100)
Cc1c(C(=O)NCC(F)(F)F)ccc2nn(CC3CCN(C(=O)c4cc5ccccc5[nH]4)CC3)cc12 [Example 296, 2-{[1-(1H-Indol-2-ylcarbonyl)piperidin-4-yl]methyl}-4-methyl-N-(2,2,2-trifluoroethyl)-2H-indazol-5-carboxamide]	29.7 nM	xxx (xxx > 100)	xxx (xxx > 100)
Cc1c(C(=O)NCC(F)(F)F)ccc2nn(CC3CCN(C(=O)c4nc5ccccc5n4C)CC3)cc12 [Example 297, 4-methyl-2-({1-[(1-methyl-1H-benzimidazol-2-yl)carbonyl]piperidin-4-yl}-methyl)-N-(2,2,2-trifluoroethyl)-2H-indazol-5-carboxamide]	460 nM	xx (xx: 10-100)	xx (xx: 10-100)
Cc1c(C(=O)NCC(F)(F)F)ccc2nn(CC3CCN(C(=O)c4cnc(-c5ccccc5)s4)CC3)cc12 [Example 298, 4-methyl-2-({1-[(2-phenylthiazol-5-yl)carbonyl]piperidin-4-yl}methyl)-N-(2,2,2-trifluoroethyl)-2H-indazol-5-carboxamide]	345 nM	xx (xx: 10-100)	xx (xx: 10-100)
Cc1c(C(=O)NCC(F)(F)F)ccc2nn(CC3CCN(C(=O)c4nc5ccccc5o4)CC3)cc12 [Example 299, 2-{[1-(benzoxazol-2-ylcarbonyl)piperidin-4-yl]methyl}-4-methyl-N-(2,2,2-trifluoroethyl)-2H-indazol-5-carboxamide]	541 nM	xx (xx: 10-100)	xx (xx: 10-100)
Cc1c(C(=O)NCC(F)(F)F)ccc2nn(CC3CCN(C(=O)c4cnc(-c5ccccc5)o4)CC3)cc12 [Example 300, 4-methyl-2-({1-[(2-phenyloxazol-5-yl)carbonyl]piperidin-4-yl}methyl)-N-(2,2,2-trifluoroethyl)-2H-indazol-5-carboxamide]	79.8 nM	xxx (xxx > 100)	xxx (xxx > 100)
Cc1c(C(=O)NCC(F)(F)F)ccc2nn(CC3CCN(C(=O)c4ccc(Oc5ccc(C(F)(F)F)cn5)cc4)CC3)cc12 [Example 301, 4-methyl-N-(2,2,2-trifluoroethyl)-2-{[1-(4-{[5-(trifluoromethyl)pyridin-2-yl]-oxy}benzoyl)piperidin-4-yl]methyl}-2H-indazol-5-carboxamide]	24.5 nM	xxx (xxx > 100)	xxx (xxx > 100)
